Here are results for four molecules from US20090054376A1, “BENZOFURAN DERIVATIVES WITH THERAPEUTIC ACTIVITIES” (Pharmos Corporation, priority 2005, published 2009).

Structures are written as SMILES. “Also recorded” adds a separate entry of the source. Like-named read-outs stand apart in the source and are kept apart here.

Series [1] deals with visceral pain writhing responses. The experiment in a line: Visceral pain, acetic acid induced writhing responses. Format: in vivo, Male ICR mice. Conditions: single dose 2 mg/kg i.v., compared to untreated group. For orientation: Writhing tests count abdominal constrictions after an irritant is injected.
Series [2] has as its system CB1 related cannabimimetic activity. Nature of the series: Safety: body temperature, catalepsy, spontaneous locomotor activity, elevated plus maze, sensitivity to touch. Format: in vivo, ICR male mice. The note with it: 2 mg/kg i.v. How it is done: In the present study, impact of compounds of the invention on the central nervous system was measured by monitoring the body temperature, catalepsy and spontaneous locomotor activity of rodents. These activities are part of the Tetrad assays which are indicative, if all parameters are affected, of CB1 mediated activity. In addition, lack of CNS psychomimetic effect was assessed in the elevated plus maze model. Finally, sensitivity to touch was determined in order to evaluate peripheral CB1 related activity.
ICR male mice (average body weight 25 g, Harlan, Israel) were administered the compounds of the invention i.v. at a dose of 2 mg/kg and at a volume dose of 5 ml/kg. The psychoactive cannabinoid HU-210 was used as positive control at the 100-fold lower dose of 0.02 mg/kg i.v. The following measurements were made starting 15 minutes after compound administration. All tests were completed for each animal within approximately 10 minutes. Rectal temperature was monitored using a thermistor probe (YSI model 400, USA). Spontaneous locomotion was assessed using the open field methodology. The number of squares crossed by the animals were recorded and analyzed during a period of three minutes. At the end of the open field test, the animals were tested for catalepsy symptoms. This was carried out by gently forcing the animal to stand on its hind paws when its front paws are holding on an elevated beam. The time for the animal to step down of the beam was measured in seconds. A normal animal withdraws the beam immediately whereas cataleptic animal tend to stay on the beam. The longer the animal stays leaning on the beam, the more cataleptic the animal is. The behavior of the animals was then assessed in the elevated plus maze. The elevated plus maze consists of two open arms and two arms that are enclosed by high walls (arms 30×10 cm, wall height 20 cm). The elevated plus maze is usually elevated 80 cm above the floor. The mouse is placed on the maze head facing an open arm, and the time spent in the different compartments of the maze (open arms, closed arms and central area) are measured for the next 5 minutes. Results are expressed as percent of the time spent in the open arms, normal animals preferring to stay in the closed arms of the maze. Finally, animals were gently touched by an observer blinded for the treatment group and their sensitivity scored according to the following scale: 0 not sensitive, 1 sensitive and 2 highly sensitive. Results are expressed as average±SEM. At the end of the study, the animals were euthanized.

The next series concerns IL-6. The experiment in a line: Cytokine secretion into blood circulation in LPS injected mice, IL-6. Format: in vivo, Balb/C female mice. The note with it: 2 mg/kg i.v., LPS 3 mg/kg i.p., plasma 90 minutes after LPS. How it is done:
(§1) Balb/C female mice (average body weight 20 g, Harlan, Israel) were injected i.v. at a volume dosage of 5 ml/kg with either vehicle or test compounds at a dose of 2 mg/kg. Each treatment group comprised at least 9 animals. Immediately after compound or control administration, the mice were injected i.p. with 3 mg/kg LPS (E. coli 055:B5, Calbiochem). Ninety minutes after LPS induction, blood samples were collected into heparanized test tubes. Plasma was separated by centrifugation (10,000 rpm for 5 minutes at RT) and stored at −20° C. until assayed. The level of the inflammatory mediator under study, IL-1β, IL-6, IL-10 or TNF-α, was assayed by ELISA techniques.
(§2) The technique used to quantify the amount of a given protein in a liquid sample, either tissue culture supernatant or body fluid, is based on Enzyme Linked ImmunoSorbent Assay (ELISA) methodology. Either commercially available or established in house, the assay is based on the capture of the protein of interest by specific antibodies bound to the bottom of an ELISA plate well. Unbound material is washed away, the captured protein is then exposed to a secondary antibody generally labeled with horseradish peroxidase (HRP) or alkaline phosphatase (ALP). Again the unbound material is washed away, and the samples are then incubated with the appropriate substrate yielding a colorimetric reaction. The reaction is stopped and reading is performed in a spectrophotometer at the appropriate wavelength. Samples are tested at least in duplicate and the appropriate standard curve, consisting of serial dilutions of the recombinant target protein, is incorporated on each plate. The concentration of the protein in the sample is calculated from the standard curve.
(§3) The results are expressed as percent inhibition of secretion, taking into account the maximal cytokine concentration in vehicle “treated” animals and the baseline level in naïve animals. […] Inhibition above 50% was considered highly significant.

In another series the test system is IL-10. Nature of the series: Cytokine secretion into blood circulation in LPS injected mice, IL-10. Format: in vivo, Balb/C female mice. Conditions: 2 mg/kg i.v., LPS 3 mg/kg i.p., plasma 90 minutes after LPS. How it is done: as §1, §2, §3
The subject of another series is TNF-α. The experiment in a line: Cytokine secretion into blood circulation in LPS injected mice, TNF-α. Format: in vivo, Balb/C female mice. The note with it: 2 mg/kg i.v., LPS 3 mg/kg i.p., plasma 90 minutes after LPS. How it is done:
as §1, §2, §3

Another series has as its system IL-1β. Nature of the series: Cytokine secretion into blood circulation in LPS injected mice, IL-1β. The note with it: 2 mg/kg i.v., LPS 3 mg/kg i.p., plasma 90 minutes after LPS. Format: in vivo, Balb/C female mice. As for the experimental part:
as §1, §2, §3

Series [3] relates to carrageenan induced inflammatory pain and paw edema. Nature of the series: Inflammatory pain and paw edema induced by carrageenan. Format: in vivo, Male Sprague Dawley rats. Conditions: for Percent Inhibition of Inflammatory Pain Responses, Edema / Percent Inhibition of Inflammatory Pain Responses, ΔForce / Percent Inhibition of Inflammatory Pain Responses, ΔLT / inhibition in vivo at 10 mg/kg: 10 mg/kg i.p.; for inhibition in vivo at 10 mg/kg: Rattus norvegicus, ip. In outline:
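Male Sprague Dawley rats (~200 g) received 0.1 ml 2% λ-carrageenan subplantar in the right paw; compounds given i.p. at 3, 10 or 20 mg/kg (some p.o.) immediately after. Thermal (Hargreaves) latency, mechanical threshold, paw thickness and volume measured at 0 and 3 h; values are inter-paw differences ([…], ΔForce), volume as % of vehicle.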

In series [4] the test system is visceral pain writhing responses. The experiment in a line: Tolerance: repeated administration in the model of Visceral Pain. Format: in vivo, mice. Conditions: tested day 11 at 2 mg/kg i.v. How it is done: Male ICR mice (average body weight 25 g, Harlan, Israel) were pretreated by i.v. injection at volume dose of 5 ml/kg of vehicle, control and test compounds at various doses. Other routes of administration were tested for selected compounds including i.m. or s.c. injections at volume dose of 2.5 ml/kg and p.o. gavage at volume dose of 5 ml/kg. Compounds were dissolved in CREMOPHOR®:Ethanol and diluted 1:20 in saline prior to injection or gavage. Compounds administered i.v. were injected fifteen minutes before pain induction, whereas compounds administered i.m., s.c. or p.o. were supplied thirty minutes before pain induction, unless otherwise indicated. Each treatment group, except for controls comprising at least 30 animals, was composed of at least 6 animals. Fifteen or thirty minutes after drug administration, depending on the route of administration, the mice were injected i.p. with 10 ml/kg of 0.6% acetic acid and the number of visceral pain related behaviors (writhing movements globally defined as WR, i.e. stretching, contractions of the abdomen accompanied by an elongation of the body and extension of the hind limbs) was counted over a period of 5 minutes, starting 5 minutes after the acetic acid administration. These visceral pain related behaviors were globally defined as writhing responses (WR). The results are expressed as mean number of writhing responses ±SEM. Data were analyzed using analysis of variance (ANOVA) followed by post-hoc Fisher test.
Briefly compounds of the invention were administered at 10 mg/kg i.p. daily for 10 days and their analgesic activity was tested on day 11 as described in Example 17 (namely at 2 mg/kg i.v.). […] Each treatment group comprised 10 animals.

Series [5] deals with mechanical allodyna after chronic constriction of the sciatic nerve. Nature of the series: Neuropathic pain, chronic constriction of the sciatic nerve (CCI). Format: in vivo, Male Sprague Dawley rats. The note with it: both 0.25 and 2 mg/kg i.v. As for the experimental part: The analgesic activity of compounds of the invention was assessed in a chronic constriction induced (CCI) model of neuropathic pain. […] The development of mechanical allodyna was monitored using a Dynamic Plantar Sesthesiomether as described in Example 18. This apparatus is an automated version of the classical von Frey filaments' test.
Pre-surgery baseline values were ascertained as the mean of 2 pre-surgery values. Once the baseline values are established, the animals were surgically prepared by constricting the right sciatic nerve with 4-0 chromic cat gut loose ligatures. On day 11 post-operation, the animals that have developed mechanical allodyna were arbitrarily allocated to the various treatment groups based on the pre-surgery values.
The design was randomized, performed in a masked fashion as to whether drug or vehicle is being given. Male Sprague Dawley rats (average body weight 240 g, Harlan, Israel), were allowed to acclimatize to the behavioral testing equipment prior to testing. On the testing day, the animals, at least six per treatment group, were administered the compounds and controls at a volume dosage of 5 ml/kg. Fifteen minutes later, the mechanical stimulus was applied and the force, measured in grams, causing a withdrawal response for each of the ipsilateral and contralateral hind paws was evaluated.
Results are expressed as mean±SEM for each treatment group and the differences among those groups are analyzed by analysis of variance (ANOVA) followed by post-hoc Tukey's test. A value of p<0.05 is considered to be statistically significant. Thereafter the difference in the force to be applied to the injured paw as compared to the normal paw was calculated. Δforce, expressed in grams, was measured at baseline and 1 and 4.5 hours after treatment.

Where [6] appears, read: 3 hours after carrageenan, reduction in paw swelling.

For the molecule `CCCCCCC(C)(C)c1cc(O)c2c(c1)OC1CCCCCC21` (stereo not drawn) [Compound C7S-1, 2-(1,1-dimethylheptyl)-5,6,7,8,9,9a-hexahydro-4bH-10-oxa-benzo[α]azulen-4-ol], the “Percent Inhibition of Visceral Pain Writhing Responses” value in series [1] worked out at 76%. In addition, the “adverse cannabimimetic activities in any of the parameters monitored” value in series [2] is on record as “None”. In [2] (non-significant), the “decrease of rectal temperature” value was “about 1.2 °C”. The rectal temperature in [2] (vehicle 38.88±0.11° C.) was 37.45±0.39 °C. Besides, in the series with IL-6, the “Inhibition of cytokine secretion into blood circulation, IL-6” value worked out at 82%. In addition, in the series on IL-10, the “Inhibition of cytokine secretion into blood circulation, IL-10” value came to 82%. Moreover, in the series on TNF-α, the “Inhibition of cytokine secretion into blood circulation, TNF-α” value was “NO (NO indicates that the compound tested did not significantly affect the level of cytokine in plasma of LPS injected mice and that its activity is comparable to vehicle, within ±20% from this control)”. The “Inhibition of cytokine secretion into blood circulation, IL-1β” value with IL-1β is “NO (NO indicates that the compound tested did not significantly affect the level of cytokine in plasma of LPS injected mice and that its activity is comparable to vehicle, within ±20% from this control)”. Also, the “Percent Inhibition of Inflammatory Pain Responses, Edema” value in series [3] (setting [6]) stood at 60%. Besides, the “Percent Inhibition of Inflammatory Pain Responses, ΔForce” value in [3] (3 hours, mechanical stimulus) was 13%. For the same molecule, the “Percent Inhibition of Inflammatory Pain Responses, ΔLT” value in series [3] (3 hours, thermal stimulus) was 0%.

With `CCCCCCC(C)(C)c1cc(O)c2c(c1)OC1C(O)CCCC21` (stereo not drawn) [Compound C6S-5, 3-(1,1-Dimethylheptyl)-5a,6,7,8,9,9a-hexahydro-dibenzofuran-1,6-diol], the inhibition in vivo at 2 mg/kg in series [1] (Mus musculus, iv, read-out: Percent Inhibition of Visceral Pain Writhing Responses) came to 35%. The “adverse cannabimimetic activities in any of the parameters monitored” value in [2] is on record as “None”. For the same molecule, the “Inhibition of cytokine secretion into blood circulation, IL-6” value with IL-6 is on record as 85%. For the same molecule, the “Inhibition of cytokine secretion into blood circulation, IL-10” value with IL-10 was 84%. For the same molecule, the “Inhibition of cytokine secretion into blood circulation, TNF-α” value with TNF-α is “NO (NO indicates that the compound tested did not significantly affect the level of cytokine in plasma of LPS injected mice and that its activity is comparable to vehicle, within ±20% from this control)”. For the same molecule, in the series on IL-1β, the “Inhibition of cytokine secretion into blood circulation, IL-1β” value is “NO (NO indicates that the compound tested did not significantly affect the level of cytokine in plasma of LPS injected mice and that its activity is comparable to vehicle, within ±20% from this control)”. Moreover, the inhibition in vivo at 10 mg/kg in series [3] (3 hours after carrageenan, reduction in paw swelling, read-out: Percent Inhibition of Inflammatory Pain Responses, Edema) stood at 56%; in series [3] (3 hours, mechanical stimulus, read-out: Percent Inhibition of Inflammatory Pain Responses, ΔForce) it was 34%; in [3] (3 hours, thermal stimulus, read-out: Percent Inhibition of Inflammatory Pain Responses, ΔLT), 61%.

Turning to `CN1CC[C@]23c4c5ccc(O)c4O[C@H]2[C@@H](O)C=C[C@H]3[C@H]1C5` [morphine, reference compound], in series [1] (2 mg/kg), the “Percent Inhibition of Visceral Pain Writhing Responses” value was “eradicated the pain response; also recorded: totally eliminated the pain response”. For the same molecule, the “writhing responses on day 11” value in series [4] (repeated administration daily for 10 days (10 mg/kg i.p.), vehicle 29.75±1.09) was determined as 9.60±2.85. Moreover, the “reduction in pain response after repeated administration” value in series [4] (repeated administration daily for 10 days) is recorded as 68%.

In the case of `CCCCCCC(C)(C)c1cc(OCC(=O)O)c2c(c1)OC1C(O)CCCCC21` (stereo not drawn) [Compound C7S-10, [2-(1,1-dimethylheptyl)-9-hydroxy-5,6,7,8,9,9a-hexahydro-4bH-10-oxa-benzo[α]azulen-4-yloxy]-acetic acid], the “pain response (Δforce)” value in series [5] (last time point (4.5 hours)) is on record as “totally abrogated the pain response”. Further, the “reduction of pain response (Δforce)” value in series [5] (one hour after administration) is recorded as 70-80%. In addition, the “Percent Inhibition of Visceral Pain Writhing Responses” value in series [1] worked out at 53%. In series [3] (setting [6]), the “Percent Inhibition of Inflammatory Pain Responses, Edema” value stood at 41%. In addition, the “Percent Inhibition of Inflammatory Pain Responses, ΔForce” value in [3] (3 hours, mechanical stimulus) was found to be 25%. Moreover, the “Percent Inhibition of Inflammatory Pain Responses, ΔLT” value in series [3] (3 hours, thermal stimulus) is given as 61%. In addition, the “inhibition of paw swelling” value in series [3] (30 mg/kg p.o.) was 60%.
